Measurements taken from patent US20260183295A1, “METHODS AND COMPOSITIONS FOR TREATING CANCER” (Onconova Therapeutics, Inc., priority 2022, published 2026).

Columns and labels:
Assay in all cases: CETSA-MS, MDA-MB-231 intact cells
Format in all cases: cell-based
Settings in all cases: 2 μM and 20 μM
MLEC = target: T1, MLEC (Homo sapiens, UniProt Q14165)
T1 construct: endogenous in cells; host or cells: MDA-MB-231
Method in brief: (§1)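 Cells (TNBC line MDA-MB-231, grown 37° C., 5% CO2) split into four arms, incubated, then heat-challenged on a gradient; supernatant proteins precipitated with cold acetone, digested, isobarically labeled, analyzed by MS.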

PUS7L = target: T2, PUS7L (Homo sapiens, UniProt Q9H0K6)
T2 construct: endogenous in cells; host or cells: MDA-MB-231
Method in brief: as §1

GSK3A = target: T3, GSK3A (Homo sapiens, UniProt P49840)
T3 construct: endogenous in cells; host or cells: MDA-MB-231
Method in brief: as §1

PTX3 = target: T4, PTX3 (Homo sapiens, UniProt P26022)
T4 construct: endogenous in cells; host or cells: MDA-MB-231
Method in brief: as §1

MICALL2 = target: T5, MICALL2 (Homo sapiens, UniProt Q8IY33)
T5 construct: endogenous in cells; host or cells: MDA-MB-231
Method in brief: as §1

ECE1 = target: T6, ECE1 (Homo sapiens, UniProt P42892)
T6 construct: 148 targets unique to Compound 1 in MDA-MB-231 intact cells; endogenous in cells; host or cells: MDA-MB-231
Method in brief: as §1

MAP3K20 = target: T7, MAP3K20 (Homo sapiens, UniProt Q9NYL2)
T7 construct: endogenous in cells; host or cells: MDA-MB-231
Method in brief: as §1

HNRNPR = target: T8, HNRNPR (Homo sapiens, UniProt O43390)
T8 construct: endogenous in cells; host or cells: MDA-MB-231
Method in brief: as §1

HNRNPL = target: T9, HNRNPL (Homo sapiens, UniProt P14866)
T9 construct: endogenous in cells; host or cells: MDA-MB-231
Method in brief: as §1

STK10 = target: T10, STK10 (Homo sapiens, UniProt O94804)
T10 construct: endogenous in cells; host or cells: MDA-MB-231
Method in brief: as §1

CRAT = target: T11, CRAT (Homo sapiens, UniProt P43155)
T11 construct: 148 targets unique to Compound 1 in MDA-MB-231 intact cells; endogenous in cells; host or cells: MDA-MB-231
Method in brief: as §1

AP2A1 = target: T12, AP2A1 (Homo sapiens, UniProt O95782)
T12 construct: endogenous in cells; host or cells: MDA-MB-231
Method in brief: as §1

ILF3 = target: T13, ILF3 (Homo sapiens, UniProt Q12906)
T13 construct: endogenous in cells; host or cells: MDA-MB-231
Method in brief: as §1

CDK12 = target: T14, CDK12 (Homo sapiens, UniProt Q9NYV4)
T14 construct: endogenous in cells; host or cells: MDA-MB-231
Method in brief: as §1

COG8 = target: T15, COG8 (Homo sapiens, UniProt Q96MW5)
T15 construct: endogenous in cells; host or cells: MDA-MB-231
Method in brief: as §1

DHX9 = target: T16, DHX9 (Homo sapiens, UniProt Q08211)
T16 construct: 148 targets unique to Compound 1 in MDA-MB-231 intact cells; endogenous in cells; host or cells: MDA-MB-231
Method in brief: as §1

ELL = target: T17, ELL (Homo sapiens, UniProt P55199)
T17 construct: 148 targets unique to Compound 1 in MDA-MB-231 intact cells; endogenous in cells; host or cells: MDA-MB-231
Method in brief: as §1

CHEK1 = target: T18, CHEK1 (Homo sapiens, UniProt O14757)
T18 construct: endogenous in cells; host or cells: MDA-MB-231
T18 sequence (O14757 1-476): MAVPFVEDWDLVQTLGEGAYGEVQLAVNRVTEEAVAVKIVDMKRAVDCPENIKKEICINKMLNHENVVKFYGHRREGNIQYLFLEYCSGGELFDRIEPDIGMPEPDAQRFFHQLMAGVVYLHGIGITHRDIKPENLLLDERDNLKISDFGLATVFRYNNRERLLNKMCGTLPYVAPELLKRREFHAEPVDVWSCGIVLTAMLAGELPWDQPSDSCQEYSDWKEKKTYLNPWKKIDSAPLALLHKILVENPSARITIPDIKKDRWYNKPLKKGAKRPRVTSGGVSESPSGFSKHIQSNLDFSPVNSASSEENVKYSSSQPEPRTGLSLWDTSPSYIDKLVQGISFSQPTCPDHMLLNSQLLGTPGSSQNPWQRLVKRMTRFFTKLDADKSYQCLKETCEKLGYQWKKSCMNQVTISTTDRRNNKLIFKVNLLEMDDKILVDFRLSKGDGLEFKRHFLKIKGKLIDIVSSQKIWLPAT
Method in brief: as §1

NAP1L1 = target: T19, NAP1L1 (Homo sapiens, UniProt P55209)
T19 construct: endogenous in cells; host or cells: MDA-MB-231
Method in brief: as §1

BMP2K = target: T20, BMP2K (Homo sapiens, UniProt Q9NSY1)
T20 construct: endogenous in cells; host or cells: MDA-MB-231
Method in brief: as §1

LYN = target: T21, LYN (Homo sapiens, UniProt P07948)
T21 construct: endogenous in cells; host or cells: MDA-MB-231
Method in brief: as §1

SYNCRIP = target: T22, SYNCRIP (Homo sapiens, UniProt O60506)
T22 construct: endogenous in cells; host or cells: MDA-MB-231
Method in brief: as §1

AAK1 = target: T23, AAK1 (Homo sapiens, UniProt Q2M2I8)
T23 construct: endogenous in cells; host or cells: MDA-MB-231
Method in brief: as §1

MAMDC2 = target: T24, MAMDC2 (Homo sapiens, UniProt Q7Z304)
T24 construct: endogenous in cells; host or cells: MDA-MB-231
Method in brief: as §1

PRPF4B = target: T25, PRPF4B (Homo sapiens, UniProt Q13523)
T25 construct: endogenous in cells; host or cells: MDA-MB-231
Method in brief: as §1

GSK3B = target: T26, GSK3B (Homo sapiens, UniProt P49841)
T26 construct: endogenous in cells; host or cells: MDA-MB-231
Method in brief: as §1

SCAF1 = target: T27, SCAF1 (Homo sapiens, UniProt Q9H7N4)
T27 construct: endogenous in cells; host or cells: MDA-MB-231
Method in brief: as §1

FGFRL1 = target: T28, FGFRL1 (Homo sapiens, UniProt Q8N441)
T28 construct: 148 targets unique to Compound 1 in MDA-MB-231 intact cells; endogenous in cells; host or cells: MDA-MB-231
Method in brief: as §1

MTG1 = target: T29, MTG1 (Homo sapiens, UniProt Q9BT17)
T29 construct: endogenous in cells; host or cells: MDA-MB-231
Method in brief: as §1

RPS6KA3 = target: T30, RPS6KA3 (Homo sapiens, UniProt P51812)
T30 construct: endogenous in cells; host or cells: MDA-MB-231
Method in brief: as §1

T15 sequence (Q96MW5 whole entry): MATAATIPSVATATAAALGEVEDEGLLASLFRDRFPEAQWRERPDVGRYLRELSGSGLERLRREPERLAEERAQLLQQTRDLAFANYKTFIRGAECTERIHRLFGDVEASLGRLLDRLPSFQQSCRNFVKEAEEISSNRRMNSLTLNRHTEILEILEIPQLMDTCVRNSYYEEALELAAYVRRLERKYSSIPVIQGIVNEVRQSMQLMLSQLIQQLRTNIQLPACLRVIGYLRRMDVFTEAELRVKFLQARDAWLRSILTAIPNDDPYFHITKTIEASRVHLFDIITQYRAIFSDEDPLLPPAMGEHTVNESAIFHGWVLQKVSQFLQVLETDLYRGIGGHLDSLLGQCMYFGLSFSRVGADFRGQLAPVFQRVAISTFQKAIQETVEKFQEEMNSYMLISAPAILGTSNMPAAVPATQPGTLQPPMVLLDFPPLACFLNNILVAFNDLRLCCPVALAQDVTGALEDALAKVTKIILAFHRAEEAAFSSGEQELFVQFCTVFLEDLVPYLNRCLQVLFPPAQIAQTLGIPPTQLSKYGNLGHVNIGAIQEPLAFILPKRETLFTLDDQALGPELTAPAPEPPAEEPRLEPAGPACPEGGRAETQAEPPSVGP
T3 sequence (P49840 whole entry): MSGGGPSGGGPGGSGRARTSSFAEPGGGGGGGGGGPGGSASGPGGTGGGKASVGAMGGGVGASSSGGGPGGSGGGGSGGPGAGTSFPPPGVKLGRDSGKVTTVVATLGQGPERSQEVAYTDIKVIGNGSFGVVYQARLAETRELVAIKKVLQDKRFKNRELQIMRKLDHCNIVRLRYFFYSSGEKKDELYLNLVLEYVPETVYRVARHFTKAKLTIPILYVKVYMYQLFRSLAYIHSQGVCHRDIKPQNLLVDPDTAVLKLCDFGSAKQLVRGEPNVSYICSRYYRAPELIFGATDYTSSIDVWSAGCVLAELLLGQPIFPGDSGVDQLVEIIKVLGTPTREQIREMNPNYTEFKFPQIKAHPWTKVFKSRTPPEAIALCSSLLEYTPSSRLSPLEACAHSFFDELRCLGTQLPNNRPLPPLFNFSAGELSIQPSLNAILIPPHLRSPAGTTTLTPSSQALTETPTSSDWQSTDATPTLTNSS
T28 sequence (Q8N441 25-504): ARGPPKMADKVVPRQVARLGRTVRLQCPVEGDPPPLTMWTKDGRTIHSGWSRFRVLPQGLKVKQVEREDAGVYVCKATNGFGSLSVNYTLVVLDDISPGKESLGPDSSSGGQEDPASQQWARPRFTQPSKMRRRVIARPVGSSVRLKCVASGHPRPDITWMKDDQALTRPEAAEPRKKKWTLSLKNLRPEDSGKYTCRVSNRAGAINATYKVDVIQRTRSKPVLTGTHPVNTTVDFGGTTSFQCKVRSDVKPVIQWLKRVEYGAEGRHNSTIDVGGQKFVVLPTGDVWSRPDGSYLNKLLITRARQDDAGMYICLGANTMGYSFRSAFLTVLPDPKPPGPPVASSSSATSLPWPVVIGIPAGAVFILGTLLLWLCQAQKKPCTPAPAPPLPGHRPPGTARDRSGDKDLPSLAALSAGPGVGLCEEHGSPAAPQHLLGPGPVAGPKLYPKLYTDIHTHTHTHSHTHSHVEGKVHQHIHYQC
T6 sequence (P42892 whole entry): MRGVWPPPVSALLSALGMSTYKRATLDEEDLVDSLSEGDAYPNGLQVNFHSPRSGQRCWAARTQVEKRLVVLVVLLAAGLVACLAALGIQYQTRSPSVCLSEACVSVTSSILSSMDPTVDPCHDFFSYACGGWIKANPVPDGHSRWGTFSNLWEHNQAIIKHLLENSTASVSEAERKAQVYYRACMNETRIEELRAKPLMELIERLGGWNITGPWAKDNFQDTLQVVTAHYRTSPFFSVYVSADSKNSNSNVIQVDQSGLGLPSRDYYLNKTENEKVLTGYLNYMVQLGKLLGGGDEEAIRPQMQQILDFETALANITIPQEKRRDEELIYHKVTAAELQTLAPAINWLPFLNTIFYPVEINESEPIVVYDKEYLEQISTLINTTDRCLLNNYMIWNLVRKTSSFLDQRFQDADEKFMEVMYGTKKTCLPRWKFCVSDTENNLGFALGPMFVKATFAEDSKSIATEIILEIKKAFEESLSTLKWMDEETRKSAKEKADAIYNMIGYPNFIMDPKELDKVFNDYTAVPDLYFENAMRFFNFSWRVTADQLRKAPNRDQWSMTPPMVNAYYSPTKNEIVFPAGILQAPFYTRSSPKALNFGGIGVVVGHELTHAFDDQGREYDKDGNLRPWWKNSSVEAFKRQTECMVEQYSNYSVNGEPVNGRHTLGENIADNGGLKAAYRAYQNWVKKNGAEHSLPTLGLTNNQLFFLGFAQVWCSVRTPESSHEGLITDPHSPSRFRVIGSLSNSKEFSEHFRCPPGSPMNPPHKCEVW
T9 sequence (P14866 whole entry): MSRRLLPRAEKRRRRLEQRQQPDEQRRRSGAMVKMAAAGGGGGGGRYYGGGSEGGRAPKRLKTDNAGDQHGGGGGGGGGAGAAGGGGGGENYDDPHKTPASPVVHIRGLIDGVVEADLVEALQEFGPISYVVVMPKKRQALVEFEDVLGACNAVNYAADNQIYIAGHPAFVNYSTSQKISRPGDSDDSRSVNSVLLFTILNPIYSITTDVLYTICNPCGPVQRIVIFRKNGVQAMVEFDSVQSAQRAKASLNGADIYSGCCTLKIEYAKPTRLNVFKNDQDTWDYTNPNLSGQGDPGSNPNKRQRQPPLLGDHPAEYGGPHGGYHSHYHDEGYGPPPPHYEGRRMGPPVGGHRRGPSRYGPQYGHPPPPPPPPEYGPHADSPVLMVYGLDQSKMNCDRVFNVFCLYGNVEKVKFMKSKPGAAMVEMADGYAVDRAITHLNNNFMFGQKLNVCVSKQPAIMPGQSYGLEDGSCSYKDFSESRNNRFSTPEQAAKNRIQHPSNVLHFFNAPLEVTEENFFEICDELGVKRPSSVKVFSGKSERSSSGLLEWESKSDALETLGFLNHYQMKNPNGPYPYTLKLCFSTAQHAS
T7 sequence (Q9NYL2 whole entry): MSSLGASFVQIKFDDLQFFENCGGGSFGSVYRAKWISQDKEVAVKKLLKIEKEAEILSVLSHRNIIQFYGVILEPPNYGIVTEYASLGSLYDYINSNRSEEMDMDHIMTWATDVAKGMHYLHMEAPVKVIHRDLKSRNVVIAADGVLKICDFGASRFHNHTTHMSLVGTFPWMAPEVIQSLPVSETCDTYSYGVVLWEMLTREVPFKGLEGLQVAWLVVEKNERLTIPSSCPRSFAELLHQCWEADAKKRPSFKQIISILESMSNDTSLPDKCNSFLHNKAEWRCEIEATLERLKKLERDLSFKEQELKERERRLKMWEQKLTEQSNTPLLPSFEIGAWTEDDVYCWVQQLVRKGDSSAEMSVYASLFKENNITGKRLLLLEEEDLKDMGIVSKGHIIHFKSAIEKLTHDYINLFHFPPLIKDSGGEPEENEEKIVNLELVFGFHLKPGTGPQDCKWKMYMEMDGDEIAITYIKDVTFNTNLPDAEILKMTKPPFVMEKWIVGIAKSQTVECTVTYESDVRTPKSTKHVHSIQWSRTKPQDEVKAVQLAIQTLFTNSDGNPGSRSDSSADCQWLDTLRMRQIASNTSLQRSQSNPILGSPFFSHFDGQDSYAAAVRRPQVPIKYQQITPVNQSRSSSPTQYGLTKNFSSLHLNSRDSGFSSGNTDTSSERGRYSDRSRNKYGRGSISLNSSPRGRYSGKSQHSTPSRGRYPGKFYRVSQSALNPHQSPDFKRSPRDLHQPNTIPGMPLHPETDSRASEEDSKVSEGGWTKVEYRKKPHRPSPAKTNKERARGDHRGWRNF
T21 sequence (P07948 whole entry): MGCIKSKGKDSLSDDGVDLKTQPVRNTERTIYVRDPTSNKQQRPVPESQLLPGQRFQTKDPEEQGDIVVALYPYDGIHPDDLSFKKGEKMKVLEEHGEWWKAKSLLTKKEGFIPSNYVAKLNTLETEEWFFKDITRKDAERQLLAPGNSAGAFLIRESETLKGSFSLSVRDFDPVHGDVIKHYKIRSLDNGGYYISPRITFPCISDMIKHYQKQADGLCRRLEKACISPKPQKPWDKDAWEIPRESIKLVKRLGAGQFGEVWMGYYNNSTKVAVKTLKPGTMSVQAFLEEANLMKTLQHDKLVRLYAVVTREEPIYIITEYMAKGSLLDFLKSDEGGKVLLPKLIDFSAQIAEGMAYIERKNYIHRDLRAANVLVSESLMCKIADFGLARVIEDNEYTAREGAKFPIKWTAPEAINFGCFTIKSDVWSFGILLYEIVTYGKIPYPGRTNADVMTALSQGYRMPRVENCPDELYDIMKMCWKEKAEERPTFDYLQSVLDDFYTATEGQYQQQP
T26 sequence (P49841 whole entry): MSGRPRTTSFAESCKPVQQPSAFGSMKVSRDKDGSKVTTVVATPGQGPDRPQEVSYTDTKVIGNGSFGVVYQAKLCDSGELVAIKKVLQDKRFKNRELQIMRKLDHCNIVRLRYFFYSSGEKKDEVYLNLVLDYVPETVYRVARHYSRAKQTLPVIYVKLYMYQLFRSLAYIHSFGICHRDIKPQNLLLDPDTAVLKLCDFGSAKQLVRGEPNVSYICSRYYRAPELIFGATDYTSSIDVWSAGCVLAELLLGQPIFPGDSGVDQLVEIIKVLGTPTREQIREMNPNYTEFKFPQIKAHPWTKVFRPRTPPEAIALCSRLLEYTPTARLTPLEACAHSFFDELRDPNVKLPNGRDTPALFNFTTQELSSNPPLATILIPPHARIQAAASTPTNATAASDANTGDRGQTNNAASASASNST
T29 sequence (Q9BT17 whole entry): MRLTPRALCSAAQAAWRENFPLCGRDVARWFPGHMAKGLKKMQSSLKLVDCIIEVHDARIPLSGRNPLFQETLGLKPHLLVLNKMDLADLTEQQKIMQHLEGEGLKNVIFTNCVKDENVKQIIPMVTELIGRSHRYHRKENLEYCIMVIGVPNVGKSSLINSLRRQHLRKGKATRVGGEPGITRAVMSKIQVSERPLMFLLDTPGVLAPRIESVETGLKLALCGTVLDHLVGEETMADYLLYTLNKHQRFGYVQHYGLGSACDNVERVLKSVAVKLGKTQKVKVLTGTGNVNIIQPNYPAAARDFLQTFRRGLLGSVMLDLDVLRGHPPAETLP

Compound: CN1CCN(c2ccc(Nc3ncc4cc(C#N)c(=O)n(C5CCCC5)c4n3)cc2)CC1 [Compound 1, 8-cyclopentyl-2-((4-(4-methylpiperazin-1-yl)phenyl)amino)-7-oxo-7,8-dihydropyrido[2,3-d]pyrimidine-6-carbonitrile]
- Group (CETSA-MS thermal shift) (MLEC): Stabilization
- Group (CETSA-MS thermal shift) (PUS7L): Destabilization
- Group (CETSA-MS thermal shift) (GSK3A): Stabilization
- Group (CETSA-MS thermal shift) (PTX3): Stabilization
- Group (CETSA-MS thermal shift) (MICALL2): Destabilization
- Group (CETSA-MS thermal shift) (ECE1): Stabilization
- Group (CETSA-MS thermal shift) (MAP3K20): Destabilization
- Group (CETSA-MS thermal shift) (HNRNPR): Stabilization
- Group (CETSA-MS thermal shift) (HNRNPL): Stabilization
- Group (CETSA-MS thermal shift) (STK10): Stabilization
- Group (CETSA-MS thermal shift) (CRAT): Stabilization
- Group (CETSA-MS thermal shift) (AP2A1): Destabilization
- Group (CETSA-MS thermal shift) (ILF3): Stabilization
- Group (CETSA-MS thermal shift) (CDK12): Destabilization
- Group (CETSA-MS thermal shift) (COG8): Destabilization
- Group (CETSA-MS thermal shift) (DHX9): Stabilization
- Group (CETSA-MS thermal shift) (ELL): Stabilization
- Group (CETSA-MS thermal shift) (CHEK1): Destabilization
- Group (CETSA-MS thermal shift) (NAP1L1): Stabilization
- Group (CETSA-MS thermal shift) (BMP2K): Stabilization
- Group (CETSA-MS thermal shift) (LYN): Destabilization
- Group (CETSA-MS thermal shift) (SYNCRIP): Stabilization
- Group (CETSA-MS thermal shift) (AAK1): Stabilization
- Group (CETSA-MS thermal shift) (MAMDC2): Stabilization
- Group (CETSA-MS thermal shift) (PRPF4B): Stabilization
- Group (CETSA-MS thermal shift) (GSK3B): Stabilization
- Group (CETSA-MS thermal shift) (SCAF1): Stabilization
- Group (CETSA-MS thermal shift) (FGFRL1): Stabilization
- Group (CETSA-MS thermal shift) (MTG1): Stabilization
- Group (CETSA-MS thermal shift) (RPS6KA3): Destabilization
